From patent US20240247080A1, “GLP1/GIP/NPY2 RECEPTOR TRIPLE AGONISTS” (Boehringer Ingelheim International GmbH, priority 2022, published 2024)
Read-outs that look alike come from different tables or passages of the source.

Assays:
[1] = Mouse PK after intravenous application; format: in vivo; conditions: plasma, mean residence time, intravenous 30-60 nmol/kg, male NMRI mice
Procedure: Pharmacokinetic parameters of the peptides were determined after intravenous application to NMRI mice. Male NMRI mice were obtained from Janvier Laboratories (France) weighing 30 to 40 g. Mice were housed in standard cages with a 12:12 hour light:dark cycle and standard food and water access ad libitum. Each test peptide was dissolved in 50 mM phosphate buffer (pH 7.4)/3.5% mannitol. Intravenous application of 30-60 nmol/kg was performed via the tail vein. Serial blood samples from conscious mice were collected from the saphenous vein in EDTA-containing vials at different time points up to 56 hours post-dosing. Subsequently, plasma was prepared by centrifugation for 5 min at approximately 5000 rpm and stored at −20° C. until quantification of the peptide plasma levels by liquid chromatography mass spectrometry (LC-MS). Individual plasma concentration—time profiles were analysed by a non-compartmental approach and the resulting pharmacokinetic parameters were calculated.

hGLP1R = molecular target: T1, hGLP1R (Homo sapiens, UniProt P43220); assay: hGLP1R CreLuc reporter gene assay in 0.5% and 100% plasma; format: cell-based; conditions: CreLuc reporter gene assay
T1 construct: expressed in transfected cells; host or cells: HEK-293 cells carrying a CRE-luciferase reporter gene
How it was run: (§1)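 HEK-293 cells co-expressing GLP-1 or NPY2 receptor and CHO cells expressing GIP receptor, each carrying a CRE-driven luciferase reporter, were stimulated with peptides for 4 hours at 37 °C. Luminescence was read after Bright-Glo addition. EC50 came from 8-point, four-decade curves fitted by variable-slope non-linear regression.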

hNPY2R = molecular target: T2, hNPY2R (Homo sapiens, UniProt P49146); assay: hNPY2R CreLuc reporter gene assay in 0.5% and 100% plasma; format: cell-based; conditions: CreLuc reporter gene assay
T2 construct: expressed in transfected cells; host or cells: HEK-293 cells carrying a CRE-luciferase reporter gene
T2 sequence (P49146 1-381): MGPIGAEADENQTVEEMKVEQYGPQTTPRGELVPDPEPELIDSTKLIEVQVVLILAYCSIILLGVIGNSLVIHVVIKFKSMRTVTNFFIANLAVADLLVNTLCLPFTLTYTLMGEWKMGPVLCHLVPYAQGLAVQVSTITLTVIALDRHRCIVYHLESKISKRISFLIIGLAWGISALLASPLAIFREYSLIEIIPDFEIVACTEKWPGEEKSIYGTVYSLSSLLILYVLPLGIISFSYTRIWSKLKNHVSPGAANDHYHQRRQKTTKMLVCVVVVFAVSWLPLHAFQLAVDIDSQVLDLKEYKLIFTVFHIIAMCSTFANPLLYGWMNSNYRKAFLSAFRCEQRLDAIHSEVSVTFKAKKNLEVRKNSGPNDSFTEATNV
How it was run: as §1

hGIPR = molecular target: T3, hGIPR (Homo sapiens, UniProt P48546); assay: hGIPR CreLuc reporter gene assay in 0.5% and 100% plasma; format: cell-based; conditions: CreLuc reporter gene assay
T3 construct: expressed in transfected cells; host or cells: CHO cells carrying a CRE-luciferase reporter gene
T3 sequence (P48546 22-466): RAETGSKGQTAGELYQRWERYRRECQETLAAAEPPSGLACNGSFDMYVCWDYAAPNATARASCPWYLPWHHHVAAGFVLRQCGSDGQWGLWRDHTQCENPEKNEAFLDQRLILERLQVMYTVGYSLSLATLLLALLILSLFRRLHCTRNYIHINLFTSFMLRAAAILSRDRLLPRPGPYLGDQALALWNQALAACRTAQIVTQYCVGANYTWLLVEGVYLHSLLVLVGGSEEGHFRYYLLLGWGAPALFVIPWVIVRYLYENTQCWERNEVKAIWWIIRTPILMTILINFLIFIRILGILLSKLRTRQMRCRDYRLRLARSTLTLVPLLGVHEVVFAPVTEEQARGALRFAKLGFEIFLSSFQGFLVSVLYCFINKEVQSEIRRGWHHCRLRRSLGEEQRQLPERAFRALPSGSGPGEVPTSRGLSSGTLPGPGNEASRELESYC
How it was run: as §1

[2] = 0.5% human plasma, read-out: hGLP1R 0.5% hP
[3] = 0.5% human plasma, read-out: hGIPR 0.5% hP
[4] = 100% human plasma, read-out: hGIPR 100% hP
[5] = 0.5% human plasma, read-out: hNPY2R 0.5% hP

T1 sequence (P43220 24-463): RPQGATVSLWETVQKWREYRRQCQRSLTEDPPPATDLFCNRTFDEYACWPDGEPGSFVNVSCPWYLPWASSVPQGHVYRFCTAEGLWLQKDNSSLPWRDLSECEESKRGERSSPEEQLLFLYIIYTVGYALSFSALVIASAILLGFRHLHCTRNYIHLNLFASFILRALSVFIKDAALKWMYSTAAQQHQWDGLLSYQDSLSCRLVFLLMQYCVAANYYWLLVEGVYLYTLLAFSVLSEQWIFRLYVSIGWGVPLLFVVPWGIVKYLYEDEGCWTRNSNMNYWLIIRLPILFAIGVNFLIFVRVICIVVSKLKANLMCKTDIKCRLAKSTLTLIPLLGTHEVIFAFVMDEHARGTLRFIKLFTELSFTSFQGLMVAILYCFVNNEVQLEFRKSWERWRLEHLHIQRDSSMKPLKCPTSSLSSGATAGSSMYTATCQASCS

Row | MRT [1] [h] | EC50 (hGLP1R; [2]) [nM] | EC50 (hNPY2R; 100% human plasma, read-out: hNPY2R 100% hP) [nM] | EC50 (hGIPR; [3]) [nM] | EC50 (hGIPR; [4]) [nM] | EC50 (hGLP1R; 100% human plasma, read-out: hGLP1R 100% hP) [nM] | EC50 (hNPY2R; [5]) [nM] | SMILES
1 | 6.7 | 0.1 | 21 | 0.17 | 1.11 |  |  | CC[C@H](C)[C@H](NC(=O)[C@H](CC(C)C)NC(=O)[C@H](Cc1c[nH]c2ccccc12)NC(=O)[C@H](CCC(=O)O)NC(=O)[C@@H](NC(=O)[C@H](Cc1ccccc1)NC(=O)[C@H](C)NC(=O)C(C)(C)NC(=O)[C@H](CCC(N)=O)NC(=O)[C@H](C)NC(=O)[C@H](CCC(N)=O)NC(=O)[C@H](CCCCN)NC(=O)[C@H](CCC(=O)O)NC(=O)[C@H](CC(C)C)NC(=O)C(C)(C)NC(=O)[C@@H](NC(=O)[C@H](CO)NC(=O)[C@H](Cc1ccc(O)cc1)NC(=O)[C@H](CC(=O)O)NC(=O)[C@H](CO)NC(=O)[C@@H](NC(=O)[C@H](Cc1ccccc1)NC(=O)[C@@H](NC(=O)CNC(=O)[C@H](CCC(=O)O)NC(=O)C(C)(C)NC(=O)[C@@H](N)Cc1ccc(O)cc1)[C@@H](C)O)[C@@H](C)O)[C@@H](C)CC)C(C)C)C(=O)N[C@@H](CCCCNC(=O)[C@@H](N)CCCCNC(=O)CC[C@H](NC(=O)CC[C@H](NC(=O)CC[C@H](NC(=O)CC[C@H](NC(=O)CC[C@H](NC(=O)CC[C@H](NC(=O)CCCCCCCCCCCCCCCCCCC(=O)O)C(=O)O)C(=O)O)C(=O)O)C(=O)O)C(=O)O)C(=O)O)C(=O)NCC(=O)NCC(=O)N1CCC[C@H]1C(=O)N[C@@H](CO)C(=O)N[C@@H](CO)C(=O)NCC(=O)N[C@H](C(=O)N[C@@H](CO)C(=O)N[C@H](C(=O)N[C@@H](CCCNC(=N)N)C(=O)N[C@@H](Cc1c[nH]cn1)C(=O)N[C@@H](Cc1ccc(O)cc1)C(=O)N[C@@H](Cc1ccc(O)cc1)C(=O)N[C@@H](CC(N)=O)C(=O)N[C@@H](Cc1c[nH]c2ccccc12)C(=O)N[C@@H](CC(C)C)C(=O)N[C@H](C(=O)N[C@@H](CCCNC(=N)N)C(=O)N[C@@H](CCC(N)=O)C(=O)N[C@@H](CCCNC(=N)N)C(=O)N[C@@H](Cc1ccc(O)cc1)C(N)=O)[C@@H](C)O)[C@@H](C)CC)C(C)C [Compound 27, Y-Aib-E-G-T-F-T-S-D-Y-S-I-Aib-L-E-K-Q-A-Q-Aib-A-F-V-E-W-L-I-K(1,3)-GGPSSGVSIRHYYNWLTRQRY-NH2.C20DA-gGlu-gGlu-gGlu-gGlu-gGlu-gGlu-eLys(1,2)]
2 | 10.3 | 0.17 |  | 0.13 | 1.06 | 2.87 | 28.8 | CC[C@H](C)[C@H](NC(=O)[C@H](CC(C)C)NC(=O)[C@H](Cc1c[nH]c2ccccc12)NC(=O)[C@H](CCC(=O)O)NC(=O)[C@@H](NC(=O)[C@H](Cc1ccccc1)NC(=O)[C@H](C)NC(=O)C(C)(C)NC(=O)[C@H](CCC(N)=O)NC(=O)[C@H](C)NC(=O)[C@H](CCC(N)=O)NC(=O)[C@H](CCCCN)NC(=O)[C@H](CCC(=O)O)NC(=O)[C@H](CC(C)C)NC(=O)C(C)(C)NC(=O)[C@@H](NC(=O)[C@H](CO)NC(=O)[C@H](Cc1ccc(O)cc1)NC(=O)[C@H](CC(=O)O)NC(=O)[C@H](CO)NC(=O)[C@@H](NC(=O)[C@H](Cc1ccccc1)NC(=O)[C@@H](NC(=O)CNC(=O)[C@H](CCC(=O)O)NC(=O)C(C)(C)NC(=O)[C@@H](N)Cc1ccc(O)cc1)[C@@H](C)O)[C@@H](C)O)[C@@H](C)CC)C(C)C)C(=O)N[C@@H](CCCCNC(=O)[C@@H](N)CCCCNC(=O)CC[C@H](NC(=O)CC[C@H](NC(=O)CC[C@H](NC(=O)CC[C@H](NC(=O)CC[C@H](NC(=O)CC[C@H](NC(=O)CCCCCCCCCCCCCCCCCCC(=O)O)C(=O)O)C(=O)O)C(=O)O)C(=O)O)C(=O)O)C(=O)O)C(=O)NCC(=O)NCC(=O)N1CCC[C@H]1C(=O)N[C@@H](CO)C(=O)N[C@@H](CO)C(=O)NCC(=O)N[C@@H](C)C(=O)N[C@@H](CO)C(=O)N[C@@H](CC(C)C)C(=O)N[C@@H](CCCNC(=N)N)C(=O)N[C@@H](Cc1c[nH]cn1)C(=O)N[C@@H](Cc1ccc(O)cc1)C(=O)N[C@@H](Cc1ccc(O)cc1)C(=O)N[C@@H](CC(N)=O)C(=O)N[C@@H](Cc1c[nH]c2ccccc12)C(=O)N[C@@H](CC(C)C)C(=O)N[C@H](C(=O)N[C@@H](CCCNC(=N)N)C(=O)N[C@@H](CCC(N)=O)C(=O)N(C)[C@@H](CCCNC(=N)N)C(=O)N[C@@H](Cc1ccc(O)cc1)C(N)=O)[C@@H](C)O [Compound 83, Y-Aib-E-G-T-F-T-S-D-Y-S-I-Aib-L-E-K-Q-A-Q-Aib-A-F-V-E-W-L-I-K(1,3)-G-G-P-S-S-G-A-S-L-R-H-Y-Y-N-W-L-T-R-Q-NMeR-Y-NH2.C20DA-gGlu-gGlu-gGlu-gGlu-gGlu-gGlu-eLys(1,2)]
3 | 12.6 | 0.15 |  | 0.22 | 1.11 |  | 10.3 | CC[C@H](C)[C@H](NC(=O)[C@H](CC(C)C)NC(=O)[C@H](Cc1c[nH]c2ccccc12)NC(=O)[C@H](CCC(=O)O)NC(=O)[C@@H](NC(=O)[C@H](Cc1ccccc1)NC(=O)[C@H](C)NC(=O)C(C)(C)NC(=O)[C@H](CCC(N)=O)NC(=O)[C@H](C)NC(=O)[C@H](CCC(N)=O)NC(=O)[C@H](CCCCN)NC(=O)[C@H](CCC(=O)O)NC(=O)[C@H](CC(C)C)NC(=O)C(C)(C)NC(=O)[C@@H](NC(=O)[C@H](CO)NC(=O)[C@H](Cc1ccc(O)cc1)NC(=O)[C@H](CC(=O)O)NC(=O)[C@H](CO)NC(=O)[C@@H](NC(=O)[C@H](Cc1ccccc1)NC(=O)[C@@H](NC(=O)CNC(=O)[C@H](CCC(=O)O)NC(=O)C(C)(C)NC(=O)[C@@H](N)Cc1ccc(O)cc1)[C@@H](C)O)[C@@H](C)O)[C@@H](C)CC)C(C)C)C(=O)N[C@@H](CCCCNC(=O)[C@@H](N)CCCCNC(=O)CC[C@H](NC(=O)CC[C@H](NC(=O)CC[C@H](NC(=O)CC[C@H](NC(=O)CC[C@H](NC(=O)CC[C@H](NC(=O)CCCCCCCCCCCCCCCCCCC(=O)O)C(=O)O)C(=O)O)C(=O)O)C(=O)O)C(=O)O)C(=O)O)C(=O)NCC(=O)NCC(=O)N1CCC[C@H]1C(=O)N[C@@H](CO)C(=O)N[C@@H](CO)C(=O)NCC(=O)N[C@@H](C)C(=O)N[C@@H](CO)C(=O)N[C@@H](CC(C)C)C(=O)N[C@@H](CCCNC(=N)N)C(=O)N[C@@H](Cc1c[nH]cn1)C(=O)N[C@@H](Cc1ccc(O)cc1)C(=O)N[C@@H](Cc1ccc(O)cc1)C(=O)N[C@@H](CC(N)=O)C(=O)N[C@@H](Cc1c[nH]c2ccccc12)C(=O)N[C@@H](CC(C)C)C(=O)N[C@H](C(=O)N[C@@H](CCCNC(=N)N)C(=O)N(C)[C@@H](CCC(N)=O)C(=O)N[C@@H](CCCNC(=N)N)C(=O)N[C@@H](Cc1ccc(O)cc1)C(N)=O)[C@@H](C)O [Compound 85, Y-Aib-E-G-T-F-T-S-D-Y-S-I-Aib-L-E-K-Q-A-Q-Aib-A-F-V-E-W-L-I-K(1,3)-G-G-P-S-S-G-A-S-L-R-H-Y-Y-N-W-L-T-R-NMeQ-R-Y-NH2.C20DA-gGlu-gGlu-gGlu-gGlu-gGlu-gGlu-eLys(1,2)]
